System: living cardiomyocytes
Test: SPR based sensing of beating (cardiac activity) of cardiomyocytes cultured on the SPR sensing surface
Type: cell-based, rat
Conditions: injection of 10 μM, SPR resonance angle shift vs time, compared with control group without injection (FIG. 5)
Excerpt: In one particular embodiment, rat cardiomyocytes were isolated from neonatal rat hearts from day one through day three and cultured on the SPR sensing surface 100 of the SPR based sensing system. Subsequently, the spontaneous contractions, expansions, or movements of the rat cardiomyocytes under normal living conditions were monitored by using the SPR based sensing system. In an embodiment, the SPR based sensing system can sense the beating characteristics of the living cardiomyocytes after the living cardiomyocytes is stimulated by an injection of a stimulator such as, for example, adenosine triphosphate (ATP). In another embodiment, the SPR based sensing system can sense the beating characteristics of the living cardiomyocytes after the living cardiomyocytes is inhibited by an injection of an inhibitor such as, for example, blebbistatin.

In the case of `Nc1ncnc2c1ncn2[C@@H]1O[C@H](COP(=O)(O)OP(=O)(O)OP(=O)(O)O)[C@@H](O)[C@H]1O` [ATP, adenosine triphosphate], the “cardiac activity (beating frequency) of the cardiomyocytes” value is reported as “higher cardiac activity (faster beats with frequencies higher than the baseline frequencies)”.

In the case of `Cc1ccc2c(c1)C(=O)C1(O)CCN(c3ccccc3)C1=N2` (centres unmarked) [blebbistatin], the “cardiac activity (beating frequency) of the cardiomyocytes” value is reported as “lower cardiac activity (slower beats with frequencies lower than the baseline frequencies)”.
